Source: patent US11535584B2, “Homovanillinic acid ester, in particular for creating a warm and/or pungent sensation” (SYMRISE AG, priority 2014, dated 2022)
Read-outs that look alike come from different tables or passages of the source.

How the values were obtained:
rat eyes = settings: Szolcsanyi, Jancso-Gabor 1975; cited from earlier work
[1] = Tasting and sensorial assessment of isolated ethyl homovanillate (17) (Example 2); type: in vivo
Description: The primary reaction mixture is pre-fractionated using medium-pressure liquid chromatography (MPLC) (column material: Lewatit VP OC 1064; water/ethanol 3/1; v/v). Subsequently, further separation is carried out via preparative high-pressure liquid chromatography (pHPLC) (column: Phenomenex Luna C18 5μ 150×21.2 mm, flow rate 30 ml/min, detection 210 nm) in the isocratic mode (63% H2O, 37% MeOH). Final isolation of ethyl homovanillate (17) is carried out via semi-preparative high-pressure liquid chromatography (sPHPLC) in the gradient mode (column: YMC Triart C18 5μ 250×10 mm; A: H2O; B: MeOH; 0 min 65% A, 35% B; 25 min 40% A, 60% B; 30 min 100% B; flow rate 3 ml/min; detection: 250 nm). The obtained ethyl homovanillate (17) was subsequently freeze-dried and tasted and sensorially assessed at a dosage of 100 ppm in 5% sugar solution, 0.5% salt solution, 500 ppm caffeine solution and water.

testers [2] = assay: Increase in the alcohol pungency of an ethanolic solution (Example 10); type: in vivo
Description: On the basis of a 5% sugar solution with 20% ethanol (example 1), different concentrations (10-100 ppm) of ethyl-2-(4-hydroxy-3-methoxyphenyl) acetate (17), polymethoxylated flavone PMF 60 (Miritz) and combinations (10-50 ppm) of ethyl-2-(4-hydroxy-3-methoxyphenyl) acetate (17) with polymethoxylated flavone PMF 60 (Miritz) (20 ppm) were compared with a second base solution (5% sugar solution with 40% ethanol) (Tab. 4). To this end, 5 testers rinsed their mouth with about 5 ml of the relevant solution to be tasted, spat out the solution and assessed the taste sensation.

testers [3] = assay: Sensorial assessment of combinations with grains of paradise extract, nonivamide and capsicum extract (Example 9); type: in vivo; settings: for Effect in combination of nonivamide, capsicum extract and ester: versus combinations without esters (examples 26* and 28*)
[4] = Warming effect compared to vanillyl butyl ether (Example 11); type: in vivo; settings: 4-10 ppm in 5% sugar solution vs 10 ppm vanillyl butyl ether
Description: Test solutions with 4-10 ppm ester of homovanillic acid were sensorially evaluated in a 5% sugar solution and were compared to a test solution of 10 ppm vanillyl butyl ether.

tasters [5] = assay: Tasting of esters of homovanillinic acid: pungency score and profile (Example 5); type: in vivo; settings: 25 ppm in 5% sugar solution; for Pungency assessed: scale of 1 (very weak)-9 (very strong), 4 tasters
Description: The substance to be tasted was dissolved in ethanol and the ethanolic solution was then diluted with 5% sugar solution (final concentration: 25 ppm). For the tasting, the oral cavity was rinsed and spat out by 4 tasters with approx. 5 ml of the sugar solution.

[6] = EFSA / Scientific Committee on Food opinion 2002; cited from earlier work
tasters [7] = assay: Tasting of esters of homovanillinic acid: pungency score and profile (Example 5); type: in vivo; settings: for Pungency assessed: scale of 1 (very weak)-9 (very strong)
tasters [8] = assay: Isointensity of esters compared to nonivamide and a capsicum extract (Example 6); type: in vivo; settings: 10 ppm of the ester in 5% sugar solution
Description: The substance to be tasted was dissolved in ethanol and the ethanolic solution was then diluted with 5% sugar solution (final concentration: 10 ppm). As reference, capsicum extract with 1,000,000 SHU (0.3-10 ppm) and nonivamide (0.1-1 ppm) were prepared in 5% sugar solution in increasing concentration. For the tasting, the oral cavity was rinsed and spat out by 4 tasters with approx. 5 ml of the solution to be tasted and assessed against the reference series.

trained panelists = assay: Time vs. intensity pungency profile compared with nonivamide (Example 8); type: in vivo; settings: 25 ppm vs 0.5 ppm nonivamide in 5% sugar solution
Description: To obtain a time vs. intensity profile, trained panelists (n=8-10) rinsed their oral cavity with a gulp of a sample solution (5 ml of a 5% sugar solution). Then, the intensity of the characteristic pungency was assessed at defined time intervals on the basis of a scale without fixed graduation.

[9] = 50 and 100 ppm (examples 17 and 18)

COC(=O)Cc1ccc(O)c(OC)c1 [methyl ester of homovanillic acid]
Pain sensation in rat eyes (rat eyes): active

CCOC(=O)Cc1ccc(O)c(OC)c1 [compound 17, Ethyl-2-(4-hydroxy-3-methoxyphenyl) acetate]
Taste description ([1]; 100 ppm in 0.5% salt solution): Pungent | Taste description ([1]; 100 ppm in 5% sugar solution): Pungent, warming | Taste description ([1]; 100 ppm in water): Pungent, stinging, slightly warming | Effect of combination with polymethoxylated flavone PMF 60 (testers [2]; 10-50 ppm with 20 ppm PMF 60 in 5% sugar solution with 20% ethanol (examples 7-9)): an increase of the burning sensation was additionally generated, and an extension of these effects was also achieved | Effect on taste sensation of base solution (testers [2]; 10 ppm in 5% sugar solution with 20% ethanol (example 2)): an increase and an extension of the burning sensation in the mouth | Effect on taste sensation of base solution (testers [2]; 20 ppm and 50 ppm in 5% sugar solution with 20% ethanol): additional pungency effect | Nasal effect of combination with PMF 60 (testers [2]; compared to 5% sugar solution with 40% ethanol): did not show any nasal effect | Sensorially preferred concentration in combination with PMF 60 (testers [2]; with 20 ppm PMF 60 in 5% sugar solution with 20% ethanol): 20-50 ppm | Additional effect in combination with capsicum extract at all concentrations (testers [3]; 2 and 5 ppm capsicum extract with 1,000,000 SHU): pleasantly warming effect, which remained even after the pungency sensation receded | Effect on pungency in combination with grains of paradise extract (testers [3]; 10 and 25 ppm with 30 ppm grains of paradise extract, 5% sugar solution (examples 2 and 3)): faster onset of the pungency | Assessment of the pungency sensation in combination with 2 ppm capsicum extract (testers [3]; [9]): pleasant and not long-lasting | Effect on pungency in combination with 2 ppm capsicum extract with 1,000,000 SHU (testers [3]; [9]): same intensifying and faster onsetting effect | Effect on pungency in combination with 5 ppm capsicum extract with 1,000,000 SHU (testers [3]; 50 and 100 ppm (examples 22 and 23)): quick decline in the pungency | Onset of pungency in combination with nonivamide (testers [3]; 50 and 100 ppm with 0.2 or 0.5 ppm nonivamide): faster onset of the pungency | Intensification of pungency in combination with nonivamide (testers [3]; 50 and 100 ppm with 0.2 or 0.5 ppm nonivamide (examples 7, 8, 12, 13)): the pungency of nonivamide was intensified at both of the tested concentrations, wherein this intensification corresponded to more than just the additive effect | Intensification of the pungency, 2 ppm versus 5 ppm capsicum extract (testers [3]; combination with capsicum extract with 1,000,000 SHU): significantly higher with 2 ppm capsicum extract with 1,000,000 SHU than with 5 ppm | Effect in combination of nonivamide, capsicum extract and ester (testers [3]): quicker decline in the pungency sensation as well as a warming effect | Warming effect compared to vanillyl butyl ether [4]: milder warming effect | Profile (tasters [5]): slightly warming, somewhat pungent | Pungency assessed (tasters [5]): 1-2

COc1cc(CNC(=O)CCCC/C=C/C(C)C)ccc1O [capsaicin, N-(4-hydroxy-3-methoxybenzyl)-8-methyl-(6E)-nonenoic acid amide]
Evaluation of the genotoxic potential [6]: negative result

COc1cc(CC(=O)OC(C)C)ccc1O [compound 7, Isopropyl-2-(4-hydroxy-3-methoxyphenyl) acetate]
Profile (tasters [5]): Late onset, tingling, warming, pungent, somewhat delayed, not long-lasting, pleasant | Pungency assessed (tasters [5]): 3

CCCCCCCOC(=O)Cc1ccc(O)c(OC)c1 [compound 14, Heptyl-2-(4-hydroxy-3-methoxyphenyl) acetate]
Profile (tasters [7]): slightly delayed effect, burning, pungent, warming | Pungency assessed (tasters [7]): 3

COc1cc(CC(=O)OCC(C)C)ccc1O [compound 9, Isobutyl-2-(4-hydroxy-3-methoxyphenyl) acetate]
Warming effect compared to vanillyl butyl ether [4]: warming effect similar to vanillyl butyl ether, but which lasted for a longer period | Profile (tasters [5]): quick onset of pungency, warming, slightly biting pungency | Pungency assessed (tasters [5]): 4-5

COc1cc(CC(=O)OC/C=C/c2ccccc2)ccc1O [compound 2, [(E)-Cinnamyl]-2-(4-hydroxy-3-methoxyphenyl) acetate]
Profile (tasters [7]): delayed effect, very pungent, slightly warming, somewhat mouthwatering | Pungency assessed (tasters [7]): 5-6

CCCCOC(=O)Cc1ccc(O)c(OC)c1 [compound 19, Butyl-2-(4-hydroxy-3-methoxyphenyl) acetate]
Intensification in combination with capsicum extract versus additive effect (testers [3]; 10 and 25 ppm with 2 or 5 ppm capsicum extract): the intensifications were more significant than just an additive effect | Effects in combination with capsicum extract (testers [3]; 10 and 25 ppm with 2 or 5 ppm capsicum extract (examples 19, 20, 24, 25)): the same effects were detected even at lower concentrations | Effect in combination of nonivamide, capsicum extract and ester (testers [3]): quicker decline in the pungency sensation as well as a warming effect | Concentration of capsicum extract with 1,000,000 SHU of comparable pungency (tasters [8]): ~4.5 ppm | Nonivamide concentration of comparable pungency (tasters [8]): ~0.3 ppm | Warming effect compared to vanillyl butyl ether [4]: more marked warming effect | Profile (tasters [5]): immediate pungency, quick decrease | Pungency assessed (tasters [5]): 7 | Decrease in pungency compared with nonivamide (trained panelists): considerably faster decrease in pungency | Onset of the pungency compared with nonivamide (trained panelists; identical total intensity): faster onset of the pungency

CCCCCCCCOC(=O)Cc1ccc(O)c(OC)c1 [octyl-2-(4-hydroxy-3-methoxy-phenyl) acetate, reference compound]
Pain sensation in rat eyes (rat eyes): active | Profile (tasters [5]): slow onset of pungency, late, delayed, greasy-pulpy secondary effect, burning | Pungency assessed (tasters [5]): 7

CCCOC(=O)Cc1ccc(O)c(OC)c1 [compound 18, Propyl-2-(4-hydroxy-3-methoxyphenyl) acetate]
Pain sensation in rat eyes (rat eyes): active | Warming effect compared to vanillyl butyl ether [4]: long-lasting warming effect, but which occurred at a comparatively later time | Profile (tasters [5]): weak and delayed pungency, gradually warming, tingling | Pungency assessed (tasters [5]): 4-5

CCC(C)OC(=O)Cc1ccc(O)c(OC)c1 (stereo not drawn) [compound 8, sec-Butyl-2-(4-hydroxy-3-methoxyphenyl) acetate]
Profile (tasters [5]): very delayed onset, tingling, mainly warming, gradually increasing pungency | Pungency assessed (tasters [5]): 3

COc1cc(CC(=O)OCCCCc2ccccc2)ccc1O [compound 23, 4-Phenylbutyl-2-(4-hydroxy-3-methoxyphenyl) acetate]
Profile (tasters [7]; 2.5 ppm in 5% sugar solution): delayed effect, pungent, delayed warming, burning, slightly tingling | Pungency assessed (tasters [7]; 2.5 ppm in 5% sugar solution): 4-5

CCCCCCCCCCOC(=O)Cc1ccc(O)c(OC)c1 [decyl-2-(4-hydroxy-3-methoxyphenyl) acetate, reference compound]
Profile (tasters [5]): weakly pungent, delayed, pear-like and greasy-pulpy secondary effect, throat burns more than the tongue | Pungency assessed (tasters [5]): 2

COc1cc(CC(=O)OCCCc2ccccc2)ccc1O [compound 22, 3-Phenylpropyl-2-(4-hydroxy-3-methoxyphenyl) acetate]
Profile (tasters [7]; 2 ppm in 5% sugar solution): delayed effect, pungent, warming, slightly tingling | Pungency assessed (tasters [7]; 2 ppm in 5% sugar solution): 5

CCCCCCOC(=O)Cc1ccc(O)c(OC)c1 [compound 21, Hexyl-2-(4-hydroxy-3-methoxyphenyl) acetate]
Concentration of capsicum extract with 1,000,000 SHU of comparable pungency (tasters [8]): ~8.5 ppm | Nonivamide concentration of comparable pungency (tasters [8]): ~0.5 ppm | Profile (tasters [5]): clearly pungent, slightly delayed effect, warming, relatively fast decrease in pungency | Pungency assessed (tasters [5]): 9
